Assay results: the NIST ThermoML archive (doi:10.1016/j.tca.2007.09.001)

Assay: molar heat capacity at constant pressure
Conditions: 101.33 kPa, Crystal, Large sample (1 g) DSC

[Co+3].[Nd+3].[O-2].[O-2].[O-2] [cobalt(III) neodymium(III) oxide]
Conditions | molar heat capacity at constant pressure [J/K/mol]
130 K | 57.2
140 K | 62.7
150 K | 67.7
160 K | 72.3
170 K | 76.4
180 K | 80.2
190 K | 83.5
200 K | 86.5
210 K | 89.2
220 K | 91.6
230 K | 93.8
240 K | 95.8
250 K | 97.8
260 K | 98.7
270 K | 100.5
280 K | 102.3
290 K | 104.1
298.15 K | 105.8
300 K | 105.9
325 K | 110.3
350 K | 116
375 K | 120.4
400 K | 122.9
425 K | 124.8
450 K | 127.1
475 K | 130.3
500 K | 134.5
525 K | 139.2
550 K | 144.1
575 K | 148.3
600 K | 151.4
625 K | 153.2
650 K | 153.3
675 K | 152.1
700 K | 149.9
725 K | 147.1
750 K | 144.3
775 K | 141.9
800 K | 140.3
825 K | 139.4
850 K | 138.5
